Laboratory results published in patent publication US20200237852A1, “Small Molecule Enhancers of Paneth Cell Function and Differentiation” (Massachusetts Institute of Technology, priority 2019, published 2020).

Columns and labels:
6-day ENR+CD cells [1] = assay: Cell pellet ATP after long-term (48-hour) treatment; type: cell-based, murine; conditions: low doses
From the text: (§1) We next sought to profile potential long-term modulators of differentiated PC survival and antimicrobial secretion, as well as gauge the interaction between long-term modulators and short-term induced secretion (via CCh). To accomplish this, we employed a similar set up as in the short-term experiment, with the exception that upon plating day 4 ENR+CD cells we additionally supplemented in either MDP, LPS, TNF-α, or IFN-γ for the additional 2 days in culture and assayed all conditions for both basal and CCh-induced LYZ secretion over 3 hours on day 6 of differentiation (FIG. 3A). […] Additionally, we see that the long-term addition reduces CCh-induced secretory function relative to the untreated control for all agents (FIG. 3D).
Small intestinal crypts were isolated from C57BL/6 mice of both sexes, aged between three to six months in all experiments. Crypts were then cultured in a Matrigel culture system. Briefly, crypts were resuspended in basal culture medium (Advanced DMEM/F12 with 2 mM GlutaMAX and 10 mM HEPES; Thermo Fisher Scientific) at a 1:1 ratio with Corning™ Matrigel™ Membrane Matrix—GFR (Fisher Scientific) and plated at the center of each well of 24-well plates. Following Matrigel polymerization, 500 μL of small intestinal crypt culture medium (basal media plus 100× N2 supplement, 50×B27 supplement; Life Technologies, 500× N-acetyl-L-cysteine; Sigma-Aldrich) supplemented with growth factors EGF—E (50 ng/mL, Life Technologies), Noggin—N (100 ng/mL, PeproTech) and R-spondin 1—R (500 ng/mL, PeproTech) and small molecules CHIR99021—C (3 μM, LC Laboratories) and valproic acid—V (1 mM, Sigma-Aldrich) was added to each well. ROCK inhibitor Y-27632—Y (10 μM, R&D Systems) was added for the first 2 days of culture. Cells were cultured at 37° C. with 5% CO2, and cell culture medium was changed every other day. After 6 days of culture, crypt organoids were isolated from Matrigel by mechanical dissociation. To expand enriched ISCs (ENR+CV/Y) or Paneth Cells (ENR+CD), organoids were cultured in 24-well plates, suspended in 40 uL 3-D gels (50-50 GFR MATRIGEL®, Basal culture media), with 500 uL of crypt media supplemented with necessary growth factors and small molecules. […]
For 96-well plate high-throughput screening, 4-day differentiated (ENR+CD) cell clusters in 3D Matrigel were transferred to a “2.5-D” 96-well plate culture system. […] On the last repeat, pellet was resuspended in basal culture medium, the number of cell clusters counted, and centrifuged at 300 g for 3 min at 4° C. […] At end time points (following 2 days in culture and 3 hours of stimulation), lysozyme secretion and cell viability were assessed using Lysozyme Assay Kit and CellTiter-Glo 3D Cell Viability Assay (Promega), respectively, according to the manufacturers' protocols. […]

6-day ENR+CD cells [2] = assay: Long-term (48-hour) modulators of basal and CCh-induced LYZ secretion; type: cell-based, murine; conditions: 48-hour treatment
From the text: as §1
Small intestinal crypts were isolated from C57BL/6 mice of both sexes, aged between three to six months in all experiments. Crypts were then cultured in a Matrigel culture system. Briefly, crypts were resuspended in basal culture medium (Advanced DMEM/F12 with 2 mM GlutaMAX and 10 mM HEPES; Thermo Fisher Scientific) at a 1:1 ratio with Corning™ Matrigel™ Membrane Matrix—GFR (Fisher Scientific) and plated at the center of each well of 24-well plates. Following Matrigel polymerization, 500 μL of small intestinal crypt culture medium (basal media plus 100× N2 supplement, 50×B27 supplement; Life Technologies, 500× N-acetyl-L-cysteine; Sigma-Aldrich) supplemented with growth factors EGF—E (50 ng/mL, Life Technologies), Noggin—N (100 ng/mL, PeproTech) and R-spondin 1—R (500 ng/mL, PeproTech) and small molecules CHIR99021—C (3 μM, LC Laboratories) and valproic acid—V (1 mM, Sigma-Aldrich) was added to each well. ROCK inhibitor Y-27632—Y (10 μM, R&D Systems) was added for the first 2 days of culture. Cells were cultured at 37° C. with 5% CO2, and cell culture medium was changed every other day. After 6 days of culture, crypt organoids were isolated from Matrigel by mechanical dissociation. To expand enriched ISCs (ENR+CV/Y) or Paneth Cells (ENR+CD), organoids were cultured in 24-well plates, suspended in 40 uL 3-D gels (50-50 GFR MATRIGEL®, Basal culture media), with 500 uL of crypt media supplemented with necessary growth factors and small molecules. ROCK inhibitor (Y) was added for the first two days of ISC culture following reconstitution from cryopreservation or trypLE passaging to single cells. Cell culture medium was changed every other day. After 4 days of culture in ENR+CV, cell clusters were differentiated to PCs under the ENR+CD condition for 96-well short and long-term screens. For 384-well differentiation screens, 4-day ENR+CV clusters were passaged to single cells using trypLE, replated and expanded another 3 days in 3-D ENR+CVY and then passaged directly into screens.
For 96-well plate high-throughput screening, 4-day differentiated (ENR+CD) cell clusters in 3D Matrigel were transferred to a “2.5-D” 96-well plate culture system. Briefly, cell culture gel and medium were homogenized via mechanical disruption and centrifuged at 300 g for 3 min at 4° C. […] On the last repeat, pellet was resuspended in basal culture medium, the number of cell clusters counted, and centrifuged at 300 g for 3 min at 4° C. […] At end time points (following 2 days in culture and 3 hours of stimulation), lysozyme secretion and cell viability were assessed using Lysozyme Assay Kit and CellTiter-Glo 3D Cell Viability Assay (Promega), respectively, according to the manufacturers' protocols. […]

6-day ENR+CD cells [3] = assay: Cell pellet ATP after short-term (3-hour) stimulation, 2.5-D 96-well platform; type: cell-based, murine; conditions: CCh: adj. p<0.01 for 10 and 100 μM doses
From the text: We first sought to profile the potential short-term actors, IFN-γ, LPS, and CCh, and see if with the added resolution of this first-of-its-kind PC platform, we might be able to determine high-resolution EC50's. To generate sufficient cells for plating out all necessary conditions we first expanded and enriched ISCs in traditional 3-D culture and subsequently differentiated for 4 days towards PCs (ENR+CD). Next, we passaged and plated these cells into 96-well plates as 2.5-D and continued differentiating for an additional 2 days in ENR+CD. On day 6 of differentiation, each well was then washed with basal media repeatedly and stimulated with its respective agent, with a measurement of supernatant LYZ paired to cell pellet ATP (FIG. 2A). This screen was repeated on three separate occasions with cells from three distinct murine donors and analyzed combined. We first wanted to determine the approximate standardized effect size of each treatment at each dose, which was accomplished through the replicate-based strictly standardized mean difference (SSMD), an effect size measure based on the statistics of contrast variables, and particularly useful in screening applications as it is a measure which takes into account both mean difference and variance in a single measure. […]

6-day ENR+CD cells [4] = assay: Short-term (3-hour) stimulation of LYZ secretion, 2.5-D 96-well platform; type: cell-based, murine
From the text: We first sought to profile the potential short-term actors, IFN-γ, LPS, and CCh, and see if with the added resolution of this first-of-its-kind PC platform, we might be able to determine high-resolution EC50's. To generate sufficient cells for plating out all necessary conditions we first expanded and enriched ISCs in traditional 3-D culture and subsequently differentiated for 4 days towards PCs (ENR+CD). Next, we passaged and plated these cells into 96-well plates as 2.5-D and continued differentiating for an additional 2 days in ENR+CD. On day 6 of differentiation, each well was then washed with basal media repeatedly and stimulated with its respective agent, with a measurement of supernatant LYZ paired to cell pellet ATP (FIG. 2A). This screen was repeated on three separate occasions with cells from three distinct murine donors and analyzed combined. We first wanted to determine the approximate standardized effect size of each treatment at each dose, which was accomplished through the replicate-based strictly standardized mean difference (SSMD), an effect size measure based on the statistics of contrast variables, and particularly useful in screening applications as it is a measure which takes into account both mean difference and variance in a single measure. […] In total, we see that our 2.5-D platform does provide a reasonable system for assessing and screening for potential short-term modulators of PC antimicrobial secretion.
Small intestinal crypts were isolated from C57BL/6 mice of both sexes, aged between three to six months in all experiments. Crypts were then cultured in a Matrigel culture system. Briefly, crypts were resuspended in basal culture medium (Advanced DMEM/F12 with 2 mM GlutaMAX and 10 mM HEPES; Thermo Fisher Scientific) at a 1:1 ratio with Corning™ Matrigel™ Membrane Matrix—GFR (Fisher Scientific) and plated at the center of each well of 24-well plates. […]

[5] = test system: organoids differentiated under ENR+CV, ENR+CD, or ENR; assay: Western blotting for LYZ in organoids; type: cell-based, C57BL/6 mice; conditions: six days in ENR+CV
From the text: ISC-enriched organoids cultured in 3D Matrigel with ENRCV media were passaged to 24-well plate in 3D Matrigel with ENRCV. At day zero, media were replaced to ENR or ENRCD with or without indicated compounds, and media were replaced every other day. At day six, cells were harvested from Matrigel by mechanical disruption and suspended in basal media. Cell pellets were lysed with Pierce® IP lysis buffer (ThermoFisher, 87787) containing Halt™ Protease Inhibitor Cocktail, EDTA-Free (ThermoFisher, 87785) after 3-minute centrifuge at 300×g at 4° C. Cell extracts were resolved by NuPAGE® SDS-PAGE Gel system (ThermoFisher) and electroblotted onto polyvinylidene difluoride membranes using Criterion™ Blotter (Biorad). The membranes were blocked with 2% Blotting-Grade Blocker (Biorad, 1706404) in TBS-T (50 mM Tris-HCl, 150 mM NaCl, and 0.1% Tween 20, pH 8.0) and then probed with appropriate antibodies. Detection was performed using ECL Select™ Western Blotting Detection Reagent (Amersham, 45-000-999) and ImageQuant LAS4000 (GE Healthcare).

ENR+CD organoids = assay: Flow cytometry analysis, 3D culture, XPO1 inhibitors; type: cell-based, C57BL/6 mice; conditions: 6-day ENR+CD organoids
Procedure: ISC-enriched organoids cultured in 3D Matrigel with ENRCV media were passaged to 24-well plate in 3D Matrigel with ENRCV. At day zero, media were replaced to ENRCD with or without indicated compounds, and media were replaced every other day. At day six, cells were washed with basal media, and then harvested from Matrigel by mechanical disruption in TrypLE Express (ThermoFisher, 12605010) to remove Matrigel and dissociate organoids to single cells. After vigorous pipetting and incubation at 37° C. for 20 min, dissociated organoids were strained through a 35 μm cell strainer into a tube (Falcon, 352235). The cell filtrate was centrifuged again at 300×g for 3 min at 4° C. to pellet the cells. Cell pellets were resuspended in FACS buffer (2% FBS in PBS), and then transferred to an ultra low-bind 96-well plate (Corning, 7007). Cells were stained with Zombie-violet viability dye (BioLegend, 423107) at 100× for viability staining and/or antibody staining solution. FITC-conjugated antibody for lysozyme (Dako, […]) and APC-conjugated antibody for CD24 (BioLegend, 138505) were used at 100× dilution. Flow cytometry was performed using an LSR Fortessa (BD; Koch Institute Flow Cytometry Core at MIT). The data were analyzed using FlowJo v10 software.

CC(=O)N[C@H]1C(O)O[C@H](CO)[C@@H](O)[C@@H]1O[C@H](C)C(=O)N[C@@H](C)C(=O)N[C@H](CCC(=O)O)C(N)=O (mixture of isomers) [MDP, muramyl dipeptide]
SSMD effect size of increase in cell number (ATP) (6-day ENR+CD cells [1]): fairly moderate | change in cell number (ATP rel. to ENR+CD) (6-day ENR+CD cells [1]): apparent increases in cell number | effect size of reduction of CCh-induced secretory function relative to untreated control (6-day ENR+CD cells [2]; CCh-induced secretion over 3 hours on day 6): fairly moderate | change in basal LYZ secretion (SSMD effect) (6-day ENR+CD cells [2]; basal secretion over 3 hours on day 6): fairly moderate decrease in basal secretion

C[N+](C)(C)CCOC(N)=O.[Cl-] [CCh, carbamyl choline]
effect on cellular ATP (6-day ENR+CD cells [3]): significant effect on cellular ATP | EC50 (6-day ENR+CD cells [4]; 3-hour stimulation of 6-day ENR+CD cells, 9-well replicates from 3 bio. donors, read-out: EC50 for LYZ secretion (least-squares dose-response fit)): 5 µM | SSMD effect size as short-term modulator of LYZ secretion (6-day ENR+CD cells [4]; 3-hour stimulation, across all tested doses): strong effect

CCC(=C/[C@H](C)C/C=C/C(C)=C/[C@@H](C)C(=O)[C@@H](C)[C@H](O)[C@@H](C)C/C(C)=C/C(=O)O)/C=C/[C@@H]1OC(=O)C=C[C@@H]1C [Leptomycin B]
LYZ abundance on a per-mass protein normalized basis (western blot) [5]: appreciably increase LYZ abundance | Paneth cell representation by flow cytometry (ENR+CD organoids): statistically significant increases in Paneth cell representation
